Assay [1] deals with TNF-α release from human PBMCs. Kind of assay: Cell based Assay for TNF-α release, PDE IV inhibitor in combination with p38 MAP Kinase inhibitors. Particulars: inhibiting TNF-α release from human PBMCs, LPS stimulated, compound alone. As to the method:
Blood was collected in heparin or EDTA vacutainers from healthy human volunteers and Peripheral Blood Mononuclear Cells isolated using Ficoll Hypaque gradient. The cells were resuspended in serum free RPMI 1640 medium at a concentration of 2 million cells/ml.). 1 ml of this cell suspension was co-incubated with 20 µl of compound, alone or in combination, for 10 min in a flat bottom 96 well microtiter plate. Compounds were dissolved in DMSO initially and diluted in medium for a final concentration of 0.2 % DMSO. LPS (1 µg/ml, final concentration) was then added at a volume of 10 µl per well. After 30 min, 20 µl of fetal calf serum (final concentration of 10 %) was added to each well. Cultures were incubated overnight at 37 °C in an atmosphere of 5 % CO2 and 95 % air. Supernatant were then removed and tested by ELISA for TNF-α release using a commercial kit (e.g. BD Biosciences). The level of TNF-α in treated wells was compared with the vehicle treated controls and inhibitory potency of compound was expressed as IC50 values calculated from the percent inhibition values by using Graph pad prism. Percent inhibition = 100-(Percent TNF-α drug treated)/(Percent TNF-α in vehicle treated) × 100 [formula]

In assay [2] the test system is LPS induced airway hyperreactivity. Kind of assay: LPS induced airway hyperreactivity (PC100, Penh), PDE-IV inhibitor in combination with muscarinic receptor antagonist. The following applies: intratracheal. The format is in vivo, Wistar rats. How it is done: MRA (1ng/kg to 1mg/kg) and PDE-IV inhibitor (1ng/kg to 1mg/kg) were instilled intratracheally under anesthesia either alone or in combination.
Wistar rats weighing 200±20gm were used in the study. Rats had free access to food and water. On the day of experiment, animals were exposed to lipopolysaccharide (LPS, 100µg/ml) for 40 min. One group of vehicle treated rats was exposed to phosphate buffered saline (PBS) for 40 min. four hours after LPS/PBS exposure, animals were placed inside a whole body plethysmograph (Buxco Electronics, USA) and exposed to PBS or increasing concentration of acetylcholine (1, 6, 12, 24, 48 and 96 mg/ml) aerosol until Penh values (index of airway resistance) of rats attained 2 times the value (PC-100) seen with PBS alone. The respiratory parameters were recorded online using Biosystem XA software, (Buxco Electronics, USA). Penh, at any chosen dose of acetylcholine was expressed as percent of PBS response and using a nonlinear regression analysis PC100 (2 folds of PBS value) values were computed. Percent inhibition was computed using the following formula. % Inhibition = (PC100_LPS -PC100_TEST)/(PC100_LPS -PC100_PBS) × 100 [formula] Where, PC100LPS = PC100 in vehicle treated and LPS challenged group PC100TEST = PC100 in group treated with a given dose of test compound PC100PBS = PC100 in vehicle treated group challenged with PBS

Assay [3] relates to LPS induced rat neutrophilia. Kind of assay: LPS induced rat neutrophilia model, PDE IV inhibitor in combination with corticosteroids. Particulars: Compound No. 266 in combination with corticosteroid (not named), intratracheal, neutrophil count in BAL. The format is in vivo. How it is done: PDE-4 inhibitor and corticosteroids were instilled intratracheally under anesthesia at different doses, either alone or in combination. LPS challenge: One hour after drug instillation, (LPS 20 µg/200 µl of PBS) was instilled intratracheally. One group of vehicle treated rats were instilled with 200 µl of phosphate buffered saline (PBS) and served as negative control. Bronchoalveolar lavage (BAL): Two hours after LPS challenge, bronchoalveolar lavage was performed; the animals were sacrificed using thiopentone sodium (150 mg/kg/i.p.). Trachea was cannulated and BAL was performed using Hank's Buffer salt solution (HBSS) (5 ml x 10 times). The bronchoalveolar lavage fluid was centrifuged at 800 g for 5 min, at 4°C and the pellet was resuspended in 1 ml HBSS. Total leukocyte count was performed in the resuspended sample by using hemocytometer. A cytocentrifuge preparation was made using the resuspended bronchoalveolar lavage fluid on a glass slide, stained with Leishmann's stain and then differential leukocyte counts was performed for computation of neutrophil. Statistical significance of each parameter in different treatment groups was determined with respective to vehicle control group using one-way analysis of variance followed by Dunnett's 't' test for multiple comparison. A p level of ≤ 0.05 was considered to be statistically significant.

In a further assay the test system is TNF-α release. Kind of assay: Cell based Assay for TNF-α release, PDE IV inhibitor in combination with corticosteroids. The following applies: Compound No. 266 in combination with corticosteroid (not named), human PBMC. As to the method:
Blood was collected in heparin or EDTA vacutainers from healthy human volunteers and Peripheral Blood Mononuclear Cells isolated using Ficoll Hypaque gradient. The cells were resuspended in serum free RPMI 1640 medium at a concentration of 2 million cells/ml). 1 ml of this cell suspension was co-incubated with 20 µl of compound, alone or in combination (PDE IV inhibitor and corticosteroid), for 10 min in a flat bottom 96 well microtiter plate The aforesaid compounds were dissolved in DMSO initially and diluted in medium for a final concentration of 0.2 % DMSO. LPS ([…], final concentration) was then added at a volume of 10 µl per well. After 30 min, 20 µl of fetal calf serum (final concentration of 10 %) was added to each well. Cultures were incubated overnight at 37 °C in an atmosphere of 5 % CO2 and 95 % air. Supernatant was then removed and tested by ELISA for TNF-α release using a commercial kit (e.g. BD Biosciences). The level of TNF-α in treated wells was compared with the vehicle treated controls and inhibitory potency of compound was expressed as IC50 values calculated by from percent inhibition values using Graph pad prism. […] Percent inhibition = 100-(Percent TNF-α drug treated)/(Percent TNF-α in vehicle treated) × 100 [formula]

The mark [4] stands for this setting: Compound No. 266 in combination with Tiotropium (MRA), PC100.

As a reminder, the IC50 is the midpoint of a concentration-inhibition curve.

Consider `Cc1ccccc1-c1cc2cnc(NC3CCN(C(=O)NC(C)C)CC3)nc2n([C@@H]2CCOC2)c1=O` [Compound No. 47a, N-Isopropyl-4-({6-(2-methylphenyl)-7-oxo-8-[(3R)-tetrahydrofuran-3-yl]-7,8-dihydropyrido[2,3-d]pyrimidin-2-yl}amino)piperidine-1-carboxamide], for which the concentration for half-maximal inhibition (IC50) in assay [1] (PBMC) worked out at 22 nM.

For the compound `Cc1n(CCCOC(=O)[C@](O)(c2ccccc2)[C@@H]2CCC(F)(F)C2)cc[n+]1Cc1ccccc1.[Br-]` [Compound No. 104aa, 3-Benzyl-1-[3-({(2R)-2-[(1R)-3,3-difluorocyclopentyl]-2-hydroxy-2-phenylacetyl}oxy)propyl]-2-methyl-1H-imidazol-3-ium bromide], in assay [2] (10 ng/kg), the “effect when administered alone” value is “not effective”.

For the compound `Cc1ccccc1-c1cc2cnc(NC3CCN(S(C)(=O)=O)CC3)nc2n([C@@H]2CCOC2)c1=O` [Compound No. 46a, 6-(2-Methylphenyl)-2-{[1-(methylsulfonyl)piperidin-4-yl]amino}-8-[(3R)-tetrahydrofuran-3-yl]pyrido[2,3-d]pyrimidin-7(8H)-one], the IC50 in assay [1] (PBMC) stood at 2 nM.

For the compound `O=c1ncn2nc(Sc3ccc(F)cc3F)ccc2c1-c1c(Cl)cccc1Cl` [Vx-745, reference compound], in assay [1] (PBMC), the IC50 is 14 nM.

For the compound `COc1cc(C2=NO[C@]3(CCOC3)C2)ccc1OC(F)F` (single isomer, unassigned) [Compound No. 266, (5S or 5R)-3-[4-(Difluoromethoxy)-3-methoxyphenyl]-1,7-dioxa-2-azaspiro[4.4]non-2-ene], in assay [1], the half-inhibitory concentration (IC50) turned out to be 76 nM. Besides, in assay [3], the “Combination Index” value was found to be 0.58 and the synergy with corticosteroids result is “synergy”. Further, in the assay with TNF-α release, the “Combination Index” value is 0.21 and the synergy with corticosteroids entry is “synergy”. The “effect when administered alone” value in assay [2] (10 µg/kg) is given as “ineffective”. In addition, in assay [2] (setting [4]), the Combination Index was determined as 0.26 and the “synergy with Tiotropium (MRA)” value was “synergy”.

Turning to `Cc1ccccc1-c1cc2cnc(NC3CCN(S(C)(=O)=O)CC3)nc2n([C@H]2CCOC2)c1=O` [Compound No. 44a, 6-(2-Methylphenyl)-2-{[1-(methylsulfonyl)piperidin-4-yl]amino}-8-[(3S)-tetrahydrofuran-3-yl]pyrido[2,3-d]pyrimidin-7(8H)-one], in assay [1] (PBMC), the IC50 was determined as 3 nM.
